Key:
SW780 = assay: Cell growth inhibition assay, SW780; type: cell-based; details: Homo sapiens, 168 h; SW780, 7 days
Procedure: (§1) Tumor cell lines are plated onto 96-well, black wall poly-D-lysine plates (Corning #354640), and incubated at 37° C., 5% CO2 for 18-24 hours. Compound was added at 1:3 dilutions in DMSO and cells were incubated at 37° C., 5% CO2 for 7 days. For adherent cell lines, cells were fixed and stained with propidium iodide and scanned on Acumen (channel 3 setting). For suspension cell lines, cell growth was monitored using Cell Titer-Glo reagent.

BRD4 (BD1) = molecular target: T1, BRD4 (BD1) (Homo sapiens, UniProt O60885); assay: BromoKdELECT platform assay, BRD4 (BD1); type: binding; details: 11 points dose-response, mean from a duplicate experiment
T1 construct: BRD4 (Bromodomain 1 (BD1) and Bromodomain 2 (BD2)); purchased DiscoverX (BromoKdELECT service)
Description: The purpose of this assay is to evaluate the in vitro target engagement and selectivity (https://www.discoverx.com/services/drug-discovery-development-services/epigenetic-profiling/bromoscan-epigenetic-profiling/bromokdelect). Assay measurement is based on the amount of bromodomain captured in test and control samples by using quantitative PCR technology that detects the DNA label associated to bromodomain. Compounds that bind the bromodomain active site prevents its binding to the immobilized ligand and will reduce the amount of bromodomain captured on the solid support. […] Thus, compound activity is monitored by measuring the amount of bromodomain captured in test versus control samples by using qPCR. Binding affinity for test compound-bromodomain interactions are calculated by measuring the amount of bromodomain captured on the solid support as a function of the test compound concentration.
Binding affinity (Kd) of the compounds of Examples 1 and 2 towards CREBBP, EP300 and BRD4 (Bromodomain 1 (BD1) and Bromodomain 2 (BD2)) are determined in an 11 points dose-response study (See Table 5). Data is represented as a mean from a duplicate experiment.

MDA-MIB-453 = assay: Cell growth inhibition assay, MDA-MIB-453; type: cell-based; details: 168 h; MDA-MIB-453, 7 days
Procedure: as §1

GDM1 = assay: Cell growth inhibition assay, GDM1; type: cell-based; details: Homo sapiens, GDM-1, 168 h; GDM1, 7 days
Procedure: as §1

CREBBP = CREBBP (Homo sapiens, UniProt Q92793); assay: NanoBRET assay, CREBBP bromodomain; type: cell-based; parameters: NanoLuc-CREBBP-BD (Promega, 0.0002 μg); host or cells: HEK293; details: NanoBRET in HEK293 cells, read after 4 hours incubation; mean ± Standard Deviation
Procedure: HEK293 cells are seeded at 10×10^6 cells/16 mL in DMEM+10% FBS in a T-75 flask and left to attach for 4-6 hours. Transfection reagents are diluted in Opti-MEM media (no phenol red, no FBS) and 8% Fugene HD containing expression plasmids at a final concentration of the following: 1: Histone H3.3 HaloTag DNA (Promega, 0.02 μg)+NanoLuc-CREBBP-BD (Promega, 0.0002 μg); 2: Histone H3.3 HaloTag DNA (Promega, 0.02 μg)+NanoLuc-EP300-BD (Promega, 0.0002 μg); 3: Histone H4 HaloTag DNA (0.02 μg)+NanLuc-BRD4 Full Length (Promega, 0.0002 μg). The DNA/Fugene mixtures are left at RT for 10 minutes. Transfection mix (800 μL) is added per flask and immediately swirled to cover the cells. The plates are returned to the incubator for overnight transfection. The next day, HaloTag NanoBRET 618 ligand (20 μL/vial of 0.1 mM) is thawed at RT. […]
Compound is serially diluted and added to 96-well plates (2 10 mM, 3-fold dilutions, 100% DMSO). […] CREBBP/EP300 plates are read after 4 hours incubation and the BRD4 plates are read after overnight incubation. To develop plates for reading, allow all reagents to reach RT before use. […] The plate is shaken for 1 minute to mix and within 10 minutes, read on Envision plate reader with the following settings: Mirror: Luminescence; Emission filter: E600LP; 2nd emission filter: D460/50; Measurement height (mm): 6.5; Measurement time (s): 0.2 second.

KG-1a = assay: Cell growth inhibition assay, KG-1a; type: cell-based; details: Homo sapiens, 168 h, 7 days
Procedure: as §1

THP-1 = assay: Cell growth inhibition assay, THP-1; type: cell-based; details: Homo sapiens, 168 h; THP-1, 7 days
Procedure: as §1

MOLM-16 = assay: Cell growth inhibition assay, MOLM-16; type: cell-based; details: MOLM16, 168 h; MOLM-16, 7 days
Procedure: as §1

NCI-H1048 = assay: Cell growth inhibition assay, NCI-H1048; type: cell-based; details: Homo sapiens, 168 h; NCI-H1048, 7 days
Procedure: as §1

KG-1 = assay: Cell growth inhibition assay, KG-1; type: cell-based; details: Homo sapiens, 168 h; KG-1, 7 days
Procedure: as §1

Chain of CREBBP (Q92793 1085-1192 limits assumed): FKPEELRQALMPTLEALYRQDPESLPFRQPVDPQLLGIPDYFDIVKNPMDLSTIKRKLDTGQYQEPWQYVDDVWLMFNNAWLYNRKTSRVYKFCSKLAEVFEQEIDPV

Which results are given for CCNC(=O)c1ccc(-c2cc3cccc(-c4nn(C)c5c4CN(C)C(=O)CC5)c3cn2)cn1 [Example 2, 5-[8-(1,5-Dimethyl-6-oxo-7,8-dihydro-4H-pyrazolo[4,3-c]azepin-3-yl)-3-isoquinolyl]-N-ethyl-pyridine-2-carboxamide]?
IC50 (SW780): 4 nM; Kd (BRD4 (BD1)): 2650 nM; IC50 (MDA-MIB-453): 35 nM; IC50 (GDM1): 280 nM; IC50 (CREBBP): 18.6 ± 4.09 nM; IC50 (KG-1a): 2 nM; IC50 (THP-1): 29 nM; IC50 (MOLM-16): 129 nM; IC50 (NCI-H1048): 18 nM; IC50 (KG-1): 83 nM

— patent publication US20220251096A1, “7,8-DIHYDRO-4H-PYRAZOLO[4,3-c]AZEPINE-6-ONE COMPOUNDS” (Eli Lilly and Company, priority 2019, published 2022)
